Laboratory results taken from patent US20250092001A1, “NOVEL EXCITATORY AMINO ACID GLUTAMATE TRANSPORT MODULATORS AND METHODS USING THE SAME” (Drexel University, priority 2022, published 2025).
Read-outs that look alike come from different tables or passages of the source.

Key:
[1] = Pharmacokinetics of GT467 and GT511 in rats, plasma and brain (IV, IP, PO); format: in vivo, rat; conditions: for AUC0-t: 0 to 24 hrs
Protocol: Pharmacokinetics (PK) study for GT951 was conducted at Melior Discovery Services (Exton, PA). Fifteen male CD-1 mice 23-50 g was used for the study and the mice were housed 3 per cage. PK studies for GT467 and GT511 were conducted at Piramal Pharma solutions under approved protocols (Pune, India). One hundred and sixty-eight male Wistar rats were used for the study and housed 4 per cage. All animals were maintained on a standard 12 h light cycle and given free access to water and standard rodent chow. Food and water were available ad libitum. Animals were not fasted for any portion of the study and animals were acclimated to the animal care facility for seven days prior to the start of the experiment. The holding room and procedure room temperature was 21-23° C. and humidity was at 40-45% during the experiment (within the normal range of the care facility). All procedures were completed according to Institutional Animal Care and Use Committee (IACUC) approved protocols for housing and for PK studies.
Rats were dosed with the drug and blood and brain samples were collected at 0.5, 1, 2, 4, 8 and 24 h time points. Blood was collected via the sub-lingual vein under anesthesia into tubes containing Na2EDTA as an anticoagulant. Plasma fraction was separated by centrifuging the samples at 10,000 rpm for 5 min and the plasma was transferred to a cryo tube and stored at −80 C. Animals were euthanized and the brain was rapidly removed on ice and weighed. Brain was homogenized in Milli Q water and the homogenate was stored at −80 C until further use. Bioanalysis of the samples was performed using the SCIEX QTRAP 5500 LCMS/MS system with Phenomenex synergy C18 column and carbamazepine as internal standard. A methanol extraction procedure was used to precipitate the proteins in the sample. In addition to the internal standards, drug free plasma and brain samples were prepared for calibration and quantification standards. All samples were within the detectable range of the standard curves. 50 μl of the sample was added to 200 μl of the working solution of the internal standard and centrifuged for 5 min at 10,000 rpm. 60 μl of the supernatant was added to 140 μl of water and mixed well prior to transferring them for quantitative analysis on LCMS.
Specifically, rats were administered with GT467 or GT511 intraperitoneally (IP), intravenously (IV) or orally (PO). The concentration of the administered compounds measured at various timepoints in the plasma are depicted in FIGS. 4A and 4B, the concentrations of the administered compounds measured at various timepoints in the brain are depicted in FIGS. 5A and 5B.
Furthermore, pharmacokinetic parameters such as the peak concentration (Cmax), the time to reach the peak concentration (Tmax), the area under curve from time 0 to T (i.e., 24 hrs) (AUC0-t), the area under curve from time 0 to infinite (AUC0-∞), the half-life (t1/2), the oral clearance (CL/F), the volume of distribution of drug observed (Vz_F_obs), and the percentage of bioavailability (% Bioavailability) were also measured or calculated.

[2] = tested on: PD rats (unilaterally lesioned rodent model of PD); experiment: 5-Choice Serial Reaction Time Task (5CSRTT); format: in vivo, rat; conditions: compared to saline
Source text: FIG. 12 lists the training schedule for 5CSRTT (5-Choice Serial Reaction Time Task) assay with criteria for success, in accordance with some embodiments.
FIG. 13: Schematic representation of the 5CSRTT assay, in accordance with some embodiments. Rats were trained to receive food reward for a correct nose poke response to a signal light (correct trial shown in arrow connecting 1 and 3). Incorrect trials (the arrows connecting 2/3 to 1) or omissions (the arrow connecting 4 to other boxes) results in time out indicated by darkness with no Cue lights. Trial resets with variable intertrial intervals. Nose pokes made during inter trial interval (ITI) are recorded as premature responses (PMR) that codes for impulsive behavior

[3] = tested on: R6/2 mice (Huntington disease model); experiment: Open field locomotion test; format: in vivo, mouse; conditions: GTS467 2, 4, and 10 mg/kg
Protocol: FIG. 9A depicts the results of a locomotion test. In the locomotion test of FIG. 9A, wildtype and R6/2 mice treated with vehicle or different doses of GTS467 (2, 4, and 10 mg/kg) or ceftriaxone (200 mg/kg) were subjected to the open field test to evaluate their locomotor abilities in a 44×44 cm and 43×43 cm square open field arena. Animals were placed individually in the open field arena and behavior was recorded for a period of 5 minutes under dim light and low noise conditions. Animal behavior was recorded using an overhead camera and the distance moved was recorded and quantified using the Noldus ethovision XT-14 software. FIG. 9B depicts the results of a memory task test. Referring to FIG. 9B, to test for memory impairment a novel object recognition assay was performed. A 44×44 cm square shaped open field arena was used to perform this test at week 12 and week 15. The behavioral evaluation was performed in 2 sets, each set having equal number of animals. […] The behavior was recorded under dim light and low noise conditions using an overhead camera. Cumulative duration with both the objects, total object exploration (sec), distance travelled (cm) was quantified using the Noldus ethovision XT 14 software. […]

[4] = male, Wistar, rat plasma, IP 10 mg/kg
[5] = male, Wistar, rat plasma, IV 5 mg/kg
[6] = male, Wistar, rat plasma, PO 10 mg/kg

COc1ccc(NC(=O)C(=O)NCC(c2ccccc2)N2CCN(C)CC2)cc1 (stereo not shown) [GT467, N1-(4-methoxyphenyl)-N2-(2-(4-methylpiperazin-1-yl)-2-phenylethyl)oxalamide]
AUC(0-inf) [1, 4]: 556 ng·h/mL
Cmax [1, 4]: 262 ng/mL
AUC0-t ([1]; male, Wistar, rat plasma, IP 10 mg/kg, read-out: AUC0-t): 537 ng·h/mL
CL/F ([1]; male, Wistar, rat plasma, IP 10 mg/kg, read-out: CL/F (converted)): 302 mL/min/kg
AUC(0-inf) [1, 5]: 321 ng·h/mL
Cmax [1, 5]: 307 ng/mL
AUC0-t ([1]; male, Wistar, rat plasma, IV 5 mg/kg, read-out: AUC0-t): 316 ng·h/mL
AUC(0-inf) [1, 6]: 798 ng·h/mL
Cmax [1, 6]: 204 ng/mL
AUC0-t ([1]; male, Wistar, rat plasma, PO 10 mg/kg, read-out: AUC0-t): 507 ng·h/mL
CL/F ([1]; male, Wistar, rat plasma, PO 10 mg/kg, read-out: CL/F (converted)): 299 mL/min/kg
AUC0-∞ ([1]; rat brain, IP 10 mg/kg): 4442.19 ng·h/g
Tmax ([1]; rat brain, IP 10 mg/kg): 30 min
t1/2 ([1]; rat brain, IP 10 mg/kg): 97.2 min
AUC0-t ([1]; rat brain, IP 10 mg/kg): 4414.35 ng·h/g
AUC0-∞ ([1]; rat brain, IV 5 mg/kg): 2015.59 ng·h/g
Tmax ([1]; rat brain, IV 5 mg/kg): 30 min
t1/2 ([1]; rat brain, IV 5 mg/kg): 61.8 min
AUC0-t ([1]; rat brain, IV 5 mg/kg): 1959.70 ng·h/g
AUC0-∞ ([1]; rat brain, PO 10 mg/kg): 3080.18 ng·h/g
Tmax ([1]; rat brain, PO 10 mg/kg): 52.8 min
t1/2 ([1]; rat brain, PO 10 mg/kg): 109 min
AUC0-t ([1]; rat brain, PO 10 mg/kg): 2816.80 ng·h/g
% Bioavailability ([1]; rat plasma, IP 10 mg/kg): 85.03%
Tmax ([1]; rat plasma, IP 10 mg/kg): 30 min
Vz_F_obs ([1]; rat plasma, IP 10 mg/kg): 26.470969 L/kg
t1/2 ([1]; rat plasma, IP 10 mg/kg): 60.96 min
CL/F ([1]; rat plasma, IV 5 mg/kg): 273.17875 mL/min/kg
Tmax ([1]; rat plasma, IV 5 mg/kg): 30 min
Vz_F_obs ([1]; rat plasma, IV 5 mg/kg): 16.170403 L/kg
t1/2 ([1]; rat plasma, IV 5 mg/kg): 39.1 min
% Bioavailability ([1]; rat plasma, PO 10 mg/kg): 80.34%
Tmax ([1]; rat plasma, PO 10 mg/kg): 52.5 min
Vz_F_obs ([1]; rat plasma, PO 10 mg/kg): 95.358274 L/kg
t1/2 ([1]; rat plasma, PO 10 mg/kg): 285.8 min
Plasma concentration and brain concentration by route of administration ([1]; rats, IP, IV, PO): high plasma concentration and brain concentration
Omissions (OM) [2]: trend towards reducing omissions
Percentage of correct choices (CR), cognitive performance [2]: improves cognitive performance
Premature responses (PMR), impulsivity [2]: reduces impulsivity
Distance moved [3]: significantly increased
